Reference: ChEMBL document CHEMBL1201862, “PubChem BioAssay data set” (2004)
Counter-ions that a name gives are not always drawn. Activity calls are given as the source filed them.

Columns and labels:
[1] = target: T1, Neuropeptides B/W receptor type 1 (Homo sapiens, UniProt P48145); test: Fluorescence-based dose response cell-based high throughput screening assay to identify antagonists of the G-protein coupled receptor 7 (GPR7). [Related pubchem assays: 1952 (Screening assay (GPR7 antagonists).), 1880 (Summary AID.)]; assay type: functional
T1 sequence (P48145 whole entry): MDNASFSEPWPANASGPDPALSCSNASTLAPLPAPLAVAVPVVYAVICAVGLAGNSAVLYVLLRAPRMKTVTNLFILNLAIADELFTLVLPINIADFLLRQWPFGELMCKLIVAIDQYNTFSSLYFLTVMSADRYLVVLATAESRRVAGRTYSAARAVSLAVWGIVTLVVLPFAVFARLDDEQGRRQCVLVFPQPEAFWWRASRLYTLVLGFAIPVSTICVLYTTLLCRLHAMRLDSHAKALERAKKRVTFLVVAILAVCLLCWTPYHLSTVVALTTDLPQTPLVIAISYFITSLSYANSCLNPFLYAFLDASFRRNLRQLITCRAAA

[2] = target: Melanin-concentrating hormone receptor 1 (Homo sapiens, UniProt Q99705); test: Fluorescence-based counterscreen for antagonists of the G-protein coupled receptor 7 (GPR7): cell-based high throughput dose response assay to identify antagonists of the melanin-concentrating hormone receptor 1 (MCHR1).; assay type: functional
Melanin-concentrating hormone receptor 1, sequence (Q99705 whole entry): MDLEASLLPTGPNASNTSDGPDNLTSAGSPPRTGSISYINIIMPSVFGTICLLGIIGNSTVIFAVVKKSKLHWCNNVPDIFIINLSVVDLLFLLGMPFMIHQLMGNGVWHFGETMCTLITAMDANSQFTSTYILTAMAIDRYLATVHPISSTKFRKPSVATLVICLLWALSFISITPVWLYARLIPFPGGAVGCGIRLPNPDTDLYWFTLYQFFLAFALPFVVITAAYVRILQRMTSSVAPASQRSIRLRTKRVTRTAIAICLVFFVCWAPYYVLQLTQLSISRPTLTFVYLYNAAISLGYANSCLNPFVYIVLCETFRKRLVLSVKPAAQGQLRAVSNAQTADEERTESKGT

Aspartyl aminopeptidase = target: T2, Aspartyl aminopeptidase (Plasmodium falciparum 3D7, UniProt Q8I2J3)
T2 sequence (Q8I2J3 whole entry): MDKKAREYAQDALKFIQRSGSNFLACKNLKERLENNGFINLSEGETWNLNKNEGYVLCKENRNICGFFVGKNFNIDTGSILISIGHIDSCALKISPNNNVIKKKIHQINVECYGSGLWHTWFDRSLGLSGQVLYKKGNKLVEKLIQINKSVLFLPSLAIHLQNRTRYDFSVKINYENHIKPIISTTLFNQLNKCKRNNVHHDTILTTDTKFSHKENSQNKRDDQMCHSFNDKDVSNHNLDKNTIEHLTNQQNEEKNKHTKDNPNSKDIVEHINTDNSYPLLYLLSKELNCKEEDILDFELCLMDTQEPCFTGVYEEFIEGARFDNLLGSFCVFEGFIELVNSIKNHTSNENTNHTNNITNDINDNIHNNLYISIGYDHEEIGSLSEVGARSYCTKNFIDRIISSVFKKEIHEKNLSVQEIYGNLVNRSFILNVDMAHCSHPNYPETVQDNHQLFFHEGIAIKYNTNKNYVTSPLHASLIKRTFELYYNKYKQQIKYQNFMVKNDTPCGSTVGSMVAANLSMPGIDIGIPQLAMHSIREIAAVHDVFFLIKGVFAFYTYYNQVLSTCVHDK

Procathepsin L = Procathepsin L (Homo sapiens, UniProt P07711)
Procathepsin L, sequence (P07711 whole entry): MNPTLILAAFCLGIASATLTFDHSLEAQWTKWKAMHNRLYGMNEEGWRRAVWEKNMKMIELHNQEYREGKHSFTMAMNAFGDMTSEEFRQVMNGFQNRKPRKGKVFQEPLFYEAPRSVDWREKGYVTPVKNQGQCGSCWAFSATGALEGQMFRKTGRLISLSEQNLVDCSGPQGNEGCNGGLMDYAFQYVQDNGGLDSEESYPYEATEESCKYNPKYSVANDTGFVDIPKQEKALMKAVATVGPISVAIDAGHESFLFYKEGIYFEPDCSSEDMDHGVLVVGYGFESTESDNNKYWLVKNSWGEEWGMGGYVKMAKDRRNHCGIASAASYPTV

[3] = target: Induced myeloid leukemia cell differentiation protein Mcl-1 (Homo sapiens, UniProt Q07820); assay type: functional
Induced myeloid leukemia cell differentiation protein Mcl-1, sequence (Q07820 whole entry): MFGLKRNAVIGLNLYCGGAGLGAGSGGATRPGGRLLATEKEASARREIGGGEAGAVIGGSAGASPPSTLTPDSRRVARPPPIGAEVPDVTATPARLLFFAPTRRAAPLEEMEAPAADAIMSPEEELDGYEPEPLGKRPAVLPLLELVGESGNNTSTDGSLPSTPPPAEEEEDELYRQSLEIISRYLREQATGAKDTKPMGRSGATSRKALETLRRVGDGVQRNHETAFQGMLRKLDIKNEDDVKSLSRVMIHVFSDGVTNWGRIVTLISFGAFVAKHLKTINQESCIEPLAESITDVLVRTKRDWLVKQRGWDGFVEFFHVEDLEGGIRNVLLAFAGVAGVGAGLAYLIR

BJ [4] = test: growth inhibition of engineered Ras-driven BJ cells – cell-based, alamar blue fluorescence, cherrypicked samples, dose response (AID 2631); assay type: functional; details: Homo sapiens;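 note: confirmatory dose-response assay in RAS-dependent BJ fibroblasts engineered with TERT, LT and ST, with cytotoxicity read by fluorescence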
[5] = NIH-3T3 fibroblast cytotoxicity, dose response, cytotoxicity control, cell-based, fluorescence, Alamar Blue, secondary assay (AID 2327); assay type: functional;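 note: NIH-3T3 mouse fibroblasts cultured with fluconazole at 8 µg/mL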
[6] = luciferase reporter signal suppression in cells – H4 neuroglioma cells, luminescence, dose response (AID 1990); assay type: functional, cell-based
HEK293 = test: Fluorescence-based counterscreen for potentiators or agonists of NPY-Y2: cell-based high-throughput dose response assay to identify inhibitors of cyclic nucleotide gated ion channel (CNGC) activity. In this assay, the parental HEK293 cell line transfected with a cyclic-nucleotide gated ion channel (CNGC)-based cAMP sensor is used to measure inhibition of isoproterenol-induced CNGC activity by test compound.; assay type: functional; details: Homo sapiens;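 note: stimulus is 1 µM isoproterenol at EC100 plus PDE inhibitor Ro 20-1724 at 25 µM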
BJ [7] = test: BJ-TERT fibroblast viability loss – cell-based, RAS-independent, luminescence, dose response (AID 1933); assay type: functional; details: Homo sapiens
[8] = target: T3, Neuropeptide Y receptor type 2 (Homo sapiens, UniProt P49146); test: Fluorescence-based cell-based high-throughput dose response assay for agonists of NPY-Y2. [Related pubchem assays: 1703 (Screening assay (CNGC inhibitors).), 1359 (Screening assay (NPY-Y2 potentiators or agonists).), 1304 (Screening assay (NPY-Y1 potentiators or agonists).), 1710 (Screening assay (NPY-Y2 agonists).), 1791 (Summary AID.)]; assay type: functional
T3 sequence (P49146 whole entry): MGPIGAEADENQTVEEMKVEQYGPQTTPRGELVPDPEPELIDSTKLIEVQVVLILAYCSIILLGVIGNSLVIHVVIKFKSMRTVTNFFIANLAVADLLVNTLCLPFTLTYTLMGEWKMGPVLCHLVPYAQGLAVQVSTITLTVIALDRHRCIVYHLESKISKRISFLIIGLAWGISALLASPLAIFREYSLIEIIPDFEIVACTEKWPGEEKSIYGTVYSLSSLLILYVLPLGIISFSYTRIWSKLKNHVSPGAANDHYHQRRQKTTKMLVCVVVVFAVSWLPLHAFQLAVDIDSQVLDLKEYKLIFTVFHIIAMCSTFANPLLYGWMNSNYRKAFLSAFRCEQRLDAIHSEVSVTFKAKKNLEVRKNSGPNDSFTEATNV

[9] = Luminescence Cell-Based Dose Response HTS to Identify Inhibitors of 5'UTR Stem-Loop Driven Prion Protein mRNA Translation in H4 Neuroglioblastoma Cells. [Related pubchem assays: 1827 (Project Summary), 1813 (Primary HTS)]; assay type: functional
BJ [10] = test: cells; assay type: functional, cell-based; details: Homo sapiens
[11] = fluconazole-exposed Candida albicans growth modulators – fluorescence, retest, confirmation (AID 2467); assay type: functional, cell-based
[12] = target: T4, Neuropeptide Y receptor type 1 (Homo sapiens, UniProt P25929); test: Fluorescence-based counterscreen for agonists of NPY-Y2: cell-based high-throughput dose response assay for agonists of NPY-Y1.; assay type: functional
T4 sequence (P25929 whole entry): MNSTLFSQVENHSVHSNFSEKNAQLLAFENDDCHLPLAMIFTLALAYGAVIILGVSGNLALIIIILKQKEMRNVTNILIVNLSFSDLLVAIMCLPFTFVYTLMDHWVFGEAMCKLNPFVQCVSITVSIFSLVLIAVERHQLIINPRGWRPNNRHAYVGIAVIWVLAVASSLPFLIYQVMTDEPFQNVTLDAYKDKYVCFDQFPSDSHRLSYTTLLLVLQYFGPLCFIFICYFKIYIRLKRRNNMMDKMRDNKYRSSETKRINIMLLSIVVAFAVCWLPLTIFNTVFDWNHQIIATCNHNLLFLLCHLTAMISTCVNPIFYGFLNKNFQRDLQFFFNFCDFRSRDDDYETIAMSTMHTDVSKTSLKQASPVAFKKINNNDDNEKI

BJ [13] = test: BJ-TERT-LT-ST fibroblast viability loss – cell-based, RAS-independent, luminescence, dose response (AID 1935); assay type: functional; details: Homo sapiens;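 note: BJ fibroblasts immortalized with TERT plus LT and ST oncogenes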
[14] = DRD fibroblast viability loss – cell-based, non-viral oncogenic, luminescence, dose response (AID 1934); assay type: functional; details: Homo sapiens
[15] = HEK-293T viability loss after treatment – luminescence, T-cell screen hits, cytotoxicity control for TCR NF-kB inhibitor project, dose response (AID 489026); assay type: functional, cell-based;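 note: cells exposed to compound about 14 hours before the viability readout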
[16] = A Cell Based Secondary Assay To Explore Cytotoxicity of Compounds that Sensitize Mycobacterium Tuberculosis to Beta-Lactam Antibiotics.; assay type: functional
HeLa = test: viability loss in HeLa cells – cell-based, 24 h, cherry-picked samples, cytotoxicity control, dose response (AID 504726); assay type: functional; details: Homo sapiens;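 note: potency for cytotoxicity as loss of luminescence signal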
[17] = blockers of bursicon-stimulated LGR2 cAMP reporter – cell-based, HEK293, CRE-luciferase reporter, cherry pick, set 2, dose response (AID 743343); assay type: functional;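 note: transfected cells were stimulated with diluted bursicon conditioned medium after compound addition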
[18] = blockade of melanocortin 4 receptor signaling – cell-based, plate reader, cherry pick, counter-screen for LGR2 antagonist project, dose response (AID 743444); assay type: functional;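 note: transfected HEK 293 cells stimulated with alpha-MSH peptide; potency of inhibitors of the alpha-MSH evoked signal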
Vero [19] = test: viability of Vero cells under compound – cytotoxicity control for flavivirus capping enzyme inhibitors (AID 588742); assay type: functional; details: Chlorocebus sabaeus
Genome polyprotein = Genome polyprotein (dengue virus type 2, UniProt P29990); test: flavivirus cap methylation enzyme inhibition – biochemical, confirmation dose response, primary screen (AID 588689); assay type: functional
Genome polyprotein, sequence (P29990 2492-3391 limits assumed): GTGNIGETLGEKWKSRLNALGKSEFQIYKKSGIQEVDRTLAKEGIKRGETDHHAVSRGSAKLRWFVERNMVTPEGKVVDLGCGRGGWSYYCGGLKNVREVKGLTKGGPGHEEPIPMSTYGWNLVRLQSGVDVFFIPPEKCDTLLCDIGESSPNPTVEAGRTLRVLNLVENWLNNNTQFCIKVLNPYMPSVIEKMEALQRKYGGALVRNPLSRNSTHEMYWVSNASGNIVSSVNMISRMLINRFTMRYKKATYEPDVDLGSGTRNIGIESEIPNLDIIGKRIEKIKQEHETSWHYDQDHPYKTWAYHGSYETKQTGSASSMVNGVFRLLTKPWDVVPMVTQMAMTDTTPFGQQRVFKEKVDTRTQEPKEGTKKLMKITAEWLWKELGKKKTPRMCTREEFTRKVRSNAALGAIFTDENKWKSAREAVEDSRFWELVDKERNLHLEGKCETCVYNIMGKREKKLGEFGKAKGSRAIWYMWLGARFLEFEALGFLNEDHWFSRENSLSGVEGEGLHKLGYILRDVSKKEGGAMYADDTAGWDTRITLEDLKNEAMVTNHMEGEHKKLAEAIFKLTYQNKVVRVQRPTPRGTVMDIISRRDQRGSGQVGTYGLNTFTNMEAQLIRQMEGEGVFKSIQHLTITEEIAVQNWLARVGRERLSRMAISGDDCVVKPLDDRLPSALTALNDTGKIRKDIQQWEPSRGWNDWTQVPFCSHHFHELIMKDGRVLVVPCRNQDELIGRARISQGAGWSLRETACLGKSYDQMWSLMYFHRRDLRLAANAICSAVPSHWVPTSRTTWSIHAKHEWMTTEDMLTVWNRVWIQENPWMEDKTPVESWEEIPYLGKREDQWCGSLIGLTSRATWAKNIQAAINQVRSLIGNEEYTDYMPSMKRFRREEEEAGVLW

[20] = target: T5, Polyadenylate-binding protein 1 (Homo sapiens, UniProt P11940); test: MLLE binding blockers, Cy5 peptide tracer – biochemical, fluorescence polarization, Cy5-PAM2 peptide, secondary, miRNA deadenylation inhibitor project, dose response (AID 602260); assay type: functional; details: read-out: IC50_Mean
T5 sequence (P11940 whole entry, the tested form may be a part): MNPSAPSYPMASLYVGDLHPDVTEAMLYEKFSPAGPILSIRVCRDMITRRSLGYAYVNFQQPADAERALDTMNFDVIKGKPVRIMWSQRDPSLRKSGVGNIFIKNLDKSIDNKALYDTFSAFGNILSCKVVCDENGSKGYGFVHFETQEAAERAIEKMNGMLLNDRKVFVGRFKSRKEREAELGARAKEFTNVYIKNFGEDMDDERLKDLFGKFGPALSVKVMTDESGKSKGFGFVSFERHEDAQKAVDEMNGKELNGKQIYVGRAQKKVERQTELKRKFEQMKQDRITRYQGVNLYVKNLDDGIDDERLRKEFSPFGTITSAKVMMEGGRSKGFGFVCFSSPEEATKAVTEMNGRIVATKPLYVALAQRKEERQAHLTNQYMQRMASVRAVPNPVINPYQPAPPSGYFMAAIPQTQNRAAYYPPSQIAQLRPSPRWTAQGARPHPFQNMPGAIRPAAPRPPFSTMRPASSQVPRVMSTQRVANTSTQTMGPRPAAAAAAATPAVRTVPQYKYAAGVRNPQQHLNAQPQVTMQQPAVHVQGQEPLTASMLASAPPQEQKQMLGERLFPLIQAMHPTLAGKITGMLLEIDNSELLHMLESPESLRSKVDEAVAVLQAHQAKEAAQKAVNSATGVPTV

[21] = target: T5, Polyadenylate-binding protein 1; test: MLLE domain peptide-binding blockers, IC50 – biochemical, fluorescence polarization, FITC-PAM2 peptide, dose response (AID 602259); assay type: functional; details: read-out: IC50_Mean
Large T antigen = Large T antigen (Simian virus 40, UniProt P03070); assay type: functional, Betapolyomavirus macacae;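 note: Confirmatory-stage PubChem screen for compounds that inhibit SV40 T antigen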
Large T antigen, sequence (P03070 whole entry): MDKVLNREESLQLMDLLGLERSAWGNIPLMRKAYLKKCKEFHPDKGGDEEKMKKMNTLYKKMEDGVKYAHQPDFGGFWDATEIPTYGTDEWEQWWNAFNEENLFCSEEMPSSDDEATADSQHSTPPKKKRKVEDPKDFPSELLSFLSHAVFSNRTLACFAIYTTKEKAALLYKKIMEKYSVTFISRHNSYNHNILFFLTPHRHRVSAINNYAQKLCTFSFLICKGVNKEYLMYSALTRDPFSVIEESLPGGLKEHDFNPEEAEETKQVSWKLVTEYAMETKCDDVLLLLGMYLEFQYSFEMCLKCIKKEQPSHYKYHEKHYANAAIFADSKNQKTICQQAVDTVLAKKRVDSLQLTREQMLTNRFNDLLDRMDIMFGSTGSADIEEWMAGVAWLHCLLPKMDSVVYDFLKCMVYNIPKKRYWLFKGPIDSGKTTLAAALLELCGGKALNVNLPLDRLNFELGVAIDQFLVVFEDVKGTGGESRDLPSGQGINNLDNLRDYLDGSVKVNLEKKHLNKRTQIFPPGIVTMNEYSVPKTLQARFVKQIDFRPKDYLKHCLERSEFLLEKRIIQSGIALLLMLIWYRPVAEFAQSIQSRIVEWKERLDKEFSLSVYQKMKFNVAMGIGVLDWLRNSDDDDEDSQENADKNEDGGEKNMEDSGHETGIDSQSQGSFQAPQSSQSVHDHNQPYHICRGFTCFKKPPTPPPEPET

[22] = viability of PTEN-deleted HCT116 cells – cell-based, HCT116 PTEN knockout, dose response (AID 1047); assay type: functional;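 note: HCT116 colon tumor cells with PTEN knocked out; cells exposed to compound for 60 hours before readout; potency for loss of cell viability measured by luminescence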
[23] = viability of HCT116 lacking mutant beta-catenin – cell-based, human colon tumor, dose response (AID 1045); assay type: functional;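 note: HCT116 colon tumor cells with beta catenin knocked out; cells exposed to compound for 60 hours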
[24] = viability of uninfected HEp-2 cells – cell-based, HTS, cytotoxicity control for RSV inhibitor project, dose response (AID 2410); assay type: functional; details: human respiratory syncytial virus
Vero [25] = test: cells; assay type: functional, cell-based; details: Chlorocebus sabaeus
[26] = target: FAD-linked sulfhydryl oxidase ALR (Homo sapiens, UniProt P55789); test: ALR-catalysed DTT oxidation blockers – biochemical, H2O2 detection, luminescence, cherry-pick, dose response (AID 493248)
FAD-linked sulfhydryl oxidase ALR, sequence (P55789 whole entry): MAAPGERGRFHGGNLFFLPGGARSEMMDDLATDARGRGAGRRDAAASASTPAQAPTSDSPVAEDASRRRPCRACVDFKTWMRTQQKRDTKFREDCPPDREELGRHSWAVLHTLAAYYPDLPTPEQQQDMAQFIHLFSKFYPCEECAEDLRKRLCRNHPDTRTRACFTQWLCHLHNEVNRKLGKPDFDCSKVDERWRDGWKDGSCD

Question: Which IC50 (cells) does the source give for `COc1ccc(S(=O)(=O)NC(C)(C)C)cc1-c1nnc2c3ccccc3c(C)nn12` here?
Answer: 8.97 µM (active)

Question: For `CCOC(=O)COc1c(Cl)cc(C2NC(S)=NC(c3ccccc3)=C2C(C)=O)cc1OC` (stereo not given), which IC50 [1] is on record?
Answer: > 43.8 µM (not active)

Question: What about the IC50 [2] of the same compound?
Answer: > 43.8 µM (not active)

Question: For `COc1ccc(C2=CC(=O)C=CC2=O)cc1`, which IC50 (Aspartyl aminopeptidase) is on record?
Answer: 6.85 µM (active)

Question: What about the IC50 (Procathepsin L) of the same compound?
Answer: > 59.6 µM (not active)

Question: And the IC50 [3]?
Answer: 5.43 µM (active)

Question: What about the EC50 (BJ [4]) of the same compound?
Answer: > 133 µM (inactive)

Question: Which results are given for `CN(C)c1ccc(-[n+]2c(-c3ccccc3)cc(-c3ccccc3)cc2-c2ccccc2)cc1.[O-][Cl+3]([O-])([O-])[O-]`?
Answer: EC50 [5]: 4.87 µM (active); EC50 [6]: 8.27 µM (active); EC50 (HEK293): > 35.4 µM (not active); EC50 (BJ [7]): 2.81 µM (active); EC50 [8]: > 35.4 µM (not active); EC50 [9]: > 120 µM (not active); EC50 (BJ [10]): 3.14 µM (active); EC50 [11]: 0.132 µM (active); EC50 [12]: 24.4 µM (not active); EC50 (BJ [13]): 3 µM (inconclusive); EC50 [14]: 3.14 µM (active); IC50 [15]: 55.4 µM (inactive)

Question: With `O=C(c1ccccc1)N1CCC(CC2CC(c3cccc(Br)c3)=NO2)(C(=O)NCC2CCCCC2)CC1` (stereo not given) as the compound, how does the CC50 [16] read?
Answer: > 40 µM (active)

Question: For `Cc1noc(C)c1CSCC(=O)Nc1nc2c(F)cc(F)cc2s1`, which AC50 (HeLa) is on record?
Answer: > 350 µM (inactive)

Question: With `Cc1ccc(C(=O)n2nc(-n3cccc3)c3c(C)cc(C)nc32)cc1` as the compound, how does the EC50 (HEK293) read?
Answer: > 35.4 µM (not active)

Question: And the EC50 [8]?
Answer: > 35.4 µM (not active)

Question: And the EC50 [12]?
Answer: > 35.4 µM (not active)

Question: What about the AC50 [17] of the same compound?
Answer: 13.9 µM (active)

Question: What about the AC50 [18] of the same compound?
Answer: 1.22 µM (active)

Question: With `COc1cc(C(=S)N2CCN(c3ccccc3Cl)CC2)cc(O)c1O` as the compound, how does the EC50 [5] read?
Answer: > 150 µM (inactive)

Question: And the EC50 (HEK293)?
Answer: > 35.4 µM (not active)

Question: And the EC50 [8]?
Answer: > 35.4 µM (not active)

Question: And the EC50 [11]?
Answer: > 38 µM (not active)

Question: What about the EC50 [12] of the same compound?
Answer: > 35.4 µM (not active)

Question: What about the CC50 (Vero [19]) of the same compound?
Answer: > 40 µM (active)

Question: And the IC50 (Genome polyprotein)?
Answer: > 100 µM (active)

Question: And the IC50 [20]?
Answer: > 66 µM (inactive)

Question: And the IC50 [21]?
Answer: > 66 µM (inactive)

Question: For `Cc1csc(NC(=O)NC2(C(F)(F)F)Oc3ccccc3O2)n1`, which IC50 (Aspartyl aminopeptidase) is on record?
Answer: 2.02 µM (active)

Question: What about the IC50 (Procathepsin L) of the same compound?
Answer: > 59.6 µM (not active)

Question: And the IC50 (Large T antigen)?
Answer: 13.3 µM (active)

Question: What about the EC50 [22] of the same compound?
Answer: 24.8 µM (active)

Question: What about the EC50 [23] of the same compound?
Answer: 21.9 µM (active)

Question: For `Cc1[nH]c(C)c(S(=O)(=O)N2CCN(c3cccc(C(F)(F)F)c3)CC2)c1C(=O)N1CCCCC1`, which CC50 [24] is on record?
Answer: 17.6 µM (active)

Question: What about the IC50 (Vero [25]) of the same compound?
Answer: 22.4 µM (active)

Question: What about the IC50 (cells) of the same compound?
Answer: 23.3 µM (active)

Question: With `CCC(C)(C(=O)NC1CCCCC1)N(Cc1ccco1)C(=O)c1ccc2c(c1)OCO2` (stereo not given) as the compound, how does the IC50 [1] read?
Answer: > 43.8 µM (not active)

Question: And the IC50 [2]?
Answer: > 43.8 µM (not active)

Question: With `CCC(=O)NC(=S)Nc1ccc(NC(=O)COc2ccc(Cl)c(C)c2)cc1` as the compound, how does the CC50 [24] read?
Answer: > 50 µM (active)

Question: And the IC50 (cells)?
Answer: 39 µM (active)

Question: With `NCCc1ccc(O)c(O)c1` [DOPAMINE HYDROCHLORIDE] as the compound, how does the IC50 (Aspartyl aminopeptidase) read?
Answer: 1.98 µM (active)

Question: What about the IC50 (Procathepsin L) of the same compound?
Answer: > 59.6 µM (not active)

Question: What about the AC50 [26] of the same compound?
Answer: 1.42 µM (active)
